Data published in ChEMBL document CHEMBL5634174, “Biological evaluation of sulfonate and sulfate analogues of lithocholic acid: A bioisosterism-guided approach towards the discovery of potential sialyltransferase inhibitors for antimetastatic study” (Bioorg Med Chem Lett, 2024).
Activity calls are given as the source filed them. The calls are words filed in the database; no cut-off is given here.

Tests used:
[1] = molecular target: T1, Integrin beta-3 (Homo sapiens) (UniProt P05106); assay: Inhibition of integrin beta-3 in human MDA-MB-231 cells assessed as decrease in sialylation level incubated for 48 hrs by Western blot analysis; format: cell-based; conditions: dose 20-80 µM
T1 sequence (whole entry): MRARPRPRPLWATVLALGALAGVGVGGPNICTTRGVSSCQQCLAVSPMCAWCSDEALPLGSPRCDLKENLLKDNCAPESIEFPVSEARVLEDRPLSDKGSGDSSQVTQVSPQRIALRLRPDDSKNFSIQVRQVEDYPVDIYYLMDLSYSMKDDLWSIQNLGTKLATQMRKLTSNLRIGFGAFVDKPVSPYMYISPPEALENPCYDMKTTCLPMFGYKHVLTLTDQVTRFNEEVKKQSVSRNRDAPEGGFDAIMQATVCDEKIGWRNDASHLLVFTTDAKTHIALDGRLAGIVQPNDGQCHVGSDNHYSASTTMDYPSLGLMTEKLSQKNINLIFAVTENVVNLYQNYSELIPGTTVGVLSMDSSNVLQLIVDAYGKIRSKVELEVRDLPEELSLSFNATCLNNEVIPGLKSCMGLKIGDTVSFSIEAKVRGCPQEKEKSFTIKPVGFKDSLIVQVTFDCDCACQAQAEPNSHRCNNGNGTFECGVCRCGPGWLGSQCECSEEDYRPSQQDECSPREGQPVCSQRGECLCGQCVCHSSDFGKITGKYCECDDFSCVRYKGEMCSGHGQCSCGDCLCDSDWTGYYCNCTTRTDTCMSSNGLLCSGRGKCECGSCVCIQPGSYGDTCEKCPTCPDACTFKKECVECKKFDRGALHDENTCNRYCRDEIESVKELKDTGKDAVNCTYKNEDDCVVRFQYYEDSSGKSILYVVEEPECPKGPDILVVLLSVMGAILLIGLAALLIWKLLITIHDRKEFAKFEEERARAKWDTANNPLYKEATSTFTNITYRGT

[2] = molecular target: Focal adhesion kinase 1 (Homo sapiens) (UniProt Q05397); assay: Inhibition of FAK phosphorylation at Y397 residue in human MDA-MB-231 cells at 80 uM incubated for 2 hrs by Western blot analysis; format: cell-based
Sequence of Focal adhesion kinase 1 (Homo sapiens) (Q05397 2-1052 limits assumed): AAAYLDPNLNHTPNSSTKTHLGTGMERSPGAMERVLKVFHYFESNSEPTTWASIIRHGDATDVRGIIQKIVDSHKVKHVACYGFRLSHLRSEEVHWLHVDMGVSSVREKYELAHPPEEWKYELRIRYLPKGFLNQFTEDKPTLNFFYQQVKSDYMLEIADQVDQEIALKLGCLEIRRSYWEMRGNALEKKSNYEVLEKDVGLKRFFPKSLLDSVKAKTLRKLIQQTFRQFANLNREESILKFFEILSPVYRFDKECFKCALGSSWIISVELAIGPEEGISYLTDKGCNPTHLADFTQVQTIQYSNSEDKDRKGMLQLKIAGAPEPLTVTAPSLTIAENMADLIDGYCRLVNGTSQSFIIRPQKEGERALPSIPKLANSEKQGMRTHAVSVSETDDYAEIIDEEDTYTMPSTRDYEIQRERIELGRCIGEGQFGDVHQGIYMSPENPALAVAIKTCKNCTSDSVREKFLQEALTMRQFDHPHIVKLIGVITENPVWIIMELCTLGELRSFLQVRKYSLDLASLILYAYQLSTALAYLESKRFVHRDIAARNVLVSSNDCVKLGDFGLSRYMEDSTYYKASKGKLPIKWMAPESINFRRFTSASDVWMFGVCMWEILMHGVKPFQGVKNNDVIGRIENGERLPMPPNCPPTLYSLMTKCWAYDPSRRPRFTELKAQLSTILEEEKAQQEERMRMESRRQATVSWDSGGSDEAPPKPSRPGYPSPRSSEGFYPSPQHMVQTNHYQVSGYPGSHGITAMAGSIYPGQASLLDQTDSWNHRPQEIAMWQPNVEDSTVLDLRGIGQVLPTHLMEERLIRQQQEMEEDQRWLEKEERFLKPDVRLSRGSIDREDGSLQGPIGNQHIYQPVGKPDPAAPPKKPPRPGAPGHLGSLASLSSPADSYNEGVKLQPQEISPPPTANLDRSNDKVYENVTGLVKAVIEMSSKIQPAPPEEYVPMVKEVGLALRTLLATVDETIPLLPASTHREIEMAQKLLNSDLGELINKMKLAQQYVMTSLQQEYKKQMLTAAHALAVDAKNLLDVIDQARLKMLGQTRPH

MDA-MB-231 [3] = assay: Inhibition of cell invasion in human MDA-MB-231 cells assessed as reduction in cell adhesion to fibronectin at 60 uM incubated for 24 hrs; format: functional, cell-based
[4] = molecular target: Focal adhesion kinase 1 (Homo sapiens) (UniProt Q05397); assay: Inhibition of FAK phosphorylation at Y576/577 residue in human MDA-MB-231 cells at 80 uM incubated for 2 hrs by Western blot analysis; format: cell-based
[5] = Selectivity index, ratio of IC50 for inhibition of rat ST3GAL1 to IC50 for inhibition of human ST6GAL1
MDA-MB-231 [6] = assay: Antimigratory activity against human MDA-MB-231 cells at 60 uM incubated for 16 hrs by transwell migration assay; format: functional, cell-based
[7] = molecular target: Focal adhesion kinase 1 (Homo sapiens) (UniProt Q05397); assay: Inhibition of FAK phosphorylation at Y576/577 residue in human MDA-MB-231 cells incubated for 2 hrs by Western blot analysis; format: cell-based; conditions: dose 20-80 µM
[8] = molecular target: T2, Beta-galactoside alpha-2,6-sialyltransferase 1 (Homo sapiens) (UniProt P15907); assay: Inhibition of recombinant human N-terminal His tagged ST6GAL1 (44 to 406 residues) at 50 uM by UPLC-based assay relative to control
T2 sequence (whole entry): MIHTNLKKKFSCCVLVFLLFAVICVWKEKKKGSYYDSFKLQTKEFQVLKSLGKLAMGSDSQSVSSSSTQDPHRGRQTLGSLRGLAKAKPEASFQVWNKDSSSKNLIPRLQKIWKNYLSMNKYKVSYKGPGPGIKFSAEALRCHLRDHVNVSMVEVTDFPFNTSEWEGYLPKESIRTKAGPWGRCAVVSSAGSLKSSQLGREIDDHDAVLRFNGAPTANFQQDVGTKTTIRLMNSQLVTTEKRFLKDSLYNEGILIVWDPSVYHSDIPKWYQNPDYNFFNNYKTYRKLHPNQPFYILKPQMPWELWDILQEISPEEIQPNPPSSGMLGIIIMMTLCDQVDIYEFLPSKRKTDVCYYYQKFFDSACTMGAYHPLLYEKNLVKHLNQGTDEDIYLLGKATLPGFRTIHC

MDA-MB-231 [9] = assay: Effect on total paxillin expression level in human MDA-MB-231 cells at 20 to 80 uM incubated for 2 hrs by Western blot analysis; format: functional, cell-based; conditions: dose 20-80 µM
[10] = molecular target: T3, Sialyltransferase ST3Gal-I (Rattus norvegicus) (UniProt Q6H8N0); assay: Inhibition of rat ST3GAL1 at 500 uM by UPLC-based assay relative to control
T3 sequence (whole entry): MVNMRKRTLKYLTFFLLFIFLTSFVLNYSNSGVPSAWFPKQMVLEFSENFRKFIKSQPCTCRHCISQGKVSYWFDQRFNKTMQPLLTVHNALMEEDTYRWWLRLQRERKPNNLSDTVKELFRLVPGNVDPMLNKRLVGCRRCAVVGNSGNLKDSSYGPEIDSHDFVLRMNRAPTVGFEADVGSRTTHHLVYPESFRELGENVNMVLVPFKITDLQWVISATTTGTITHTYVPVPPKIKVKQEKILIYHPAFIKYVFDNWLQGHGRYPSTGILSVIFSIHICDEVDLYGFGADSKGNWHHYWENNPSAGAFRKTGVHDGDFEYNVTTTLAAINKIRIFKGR

MDA-MB-231 [11] = assay: Inhibition of cell invasion in human MDA-MB-231 cells assessed as reduction in cell adhesion at 60 uM after 48 hrs; format: functional, cell-based
Paxillin (Homo sapiens) [12] = molecular target: Paxillin (Homo sapiens) (UniProt P49023); assay: Inhibition of paxillin phosphorylation at Y118 residue in human MDA-MB-231 cells at 80 uM incubated for 2 hrs by Western blot analysis; format: cell-based
Sequence of Paxillin (Homo sapiens) (P49023 whole entry): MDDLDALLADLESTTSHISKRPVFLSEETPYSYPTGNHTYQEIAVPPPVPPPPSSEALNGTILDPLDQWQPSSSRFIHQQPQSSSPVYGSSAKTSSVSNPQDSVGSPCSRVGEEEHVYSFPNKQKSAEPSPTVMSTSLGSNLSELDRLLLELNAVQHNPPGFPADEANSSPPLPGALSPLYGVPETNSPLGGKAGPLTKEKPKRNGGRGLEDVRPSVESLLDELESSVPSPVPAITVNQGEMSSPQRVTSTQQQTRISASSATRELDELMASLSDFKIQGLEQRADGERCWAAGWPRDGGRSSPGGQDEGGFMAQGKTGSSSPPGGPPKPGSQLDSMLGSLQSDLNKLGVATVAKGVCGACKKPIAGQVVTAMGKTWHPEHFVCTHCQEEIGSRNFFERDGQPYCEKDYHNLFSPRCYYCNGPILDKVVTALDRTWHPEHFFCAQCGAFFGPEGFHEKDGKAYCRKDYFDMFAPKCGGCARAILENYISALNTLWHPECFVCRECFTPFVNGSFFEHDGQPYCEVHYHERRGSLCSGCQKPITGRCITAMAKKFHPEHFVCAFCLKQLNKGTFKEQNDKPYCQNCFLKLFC

MDA-MB-231 [13] = assay: Effect on total FAK expression level in human MDA-MB-231 cells at 20 to 80 uM incubated for 2 hrs by Western blot analysis; format: functional, cell-based; conditions: dose 20-80 µM
[14] = molecular target: T4, Beta-galactoside alpha-2,6-sialyltransferase 1 (Homo sapiens, UniProt P15907); assay: Inhibition of recombinant human N-terminal His tagged ST6GAL1 (44 to 406 residues) by UPLC-based assay
T4 sequence (P15907 whole entry): T2 sequence (whole entry)

[15] = molecular target: T3, Sialyltransferase ST3Gal-I (Rattus norvegicus); assay: Inhibition of rat ST3GAL1 at 1000 uM by UPLC-based assay relative to control
Paxillin (Homo sapiens) [16] = molecular target: Paxillin (Homo sapiens) (UniProt P49023); assay: Inhibition of paxillin phosphorylation at Y118 residue in human MDA-MB-231 cells incubated for 2 hrs by Western blot analysis; format: cell-based; conditions: dose 20-80 µM
[17] = molecular target: Focal adhesion kinase 1 (Homo sapiens) (UniProt Q05397); assay: Inhibition of FAK phosphorylation at Y397 residue in human MDA-MB-231 cells incubated for 2 hrs by Western blot analysis; format: cell-based; conditions: dose 20-80 µM
MDA-MB-231 [18] = assay: Inhibition of cell invasion in human MDA-MB-231 cells at 60 uM; format: functional, cell-based
[19] = molecular target: Integrin beta-1 (Homo sapiens) (UniProt P05556); assay: Inhibition of integrin beta-1 in human MDA-MB-231 cells assessed as decrease in sialylation level incubated for 48 hrs by Western blot analysis; format: cell-based; conditions: dose 20-80 µM
Sequence of Integrin beta-1 (Homo sapiens) (P05556 whole entry): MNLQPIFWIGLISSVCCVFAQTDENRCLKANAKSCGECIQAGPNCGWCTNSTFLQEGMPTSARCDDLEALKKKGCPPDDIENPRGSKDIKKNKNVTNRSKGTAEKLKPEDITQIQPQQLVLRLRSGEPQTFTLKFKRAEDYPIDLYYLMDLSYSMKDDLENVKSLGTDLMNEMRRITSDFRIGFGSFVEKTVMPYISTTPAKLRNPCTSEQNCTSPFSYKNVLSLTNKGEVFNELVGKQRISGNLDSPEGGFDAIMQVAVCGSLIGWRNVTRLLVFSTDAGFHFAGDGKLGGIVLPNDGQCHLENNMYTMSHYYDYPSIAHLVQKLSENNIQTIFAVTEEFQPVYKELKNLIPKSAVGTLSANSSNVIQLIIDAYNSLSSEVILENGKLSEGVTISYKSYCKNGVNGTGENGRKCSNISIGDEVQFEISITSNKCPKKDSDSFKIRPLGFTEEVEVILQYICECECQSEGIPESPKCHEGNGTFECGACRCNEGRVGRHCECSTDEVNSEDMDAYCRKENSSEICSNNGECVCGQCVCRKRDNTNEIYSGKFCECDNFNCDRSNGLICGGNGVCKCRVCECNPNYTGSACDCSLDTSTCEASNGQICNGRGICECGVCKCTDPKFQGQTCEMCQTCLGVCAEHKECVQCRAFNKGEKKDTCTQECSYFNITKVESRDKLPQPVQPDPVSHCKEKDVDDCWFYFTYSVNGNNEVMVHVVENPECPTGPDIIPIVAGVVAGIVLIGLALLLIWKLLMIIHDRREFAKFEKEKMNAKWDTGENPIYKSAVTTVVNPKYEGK

[20] = molecular target: Integrin alpha-V (Homo sapiens) (UniProt P06756); assay: Inhibition of integrin alpha-v in human MDA-MB-231 cells assessed as decrease in sialylation level incubated for 48 hrs by Western blot analysis; format: cell-based; conditions: dose 20-80 µM
Sequence of Integrin alpha-V (Homo sapiens) (P06756 31-889 limits assumed): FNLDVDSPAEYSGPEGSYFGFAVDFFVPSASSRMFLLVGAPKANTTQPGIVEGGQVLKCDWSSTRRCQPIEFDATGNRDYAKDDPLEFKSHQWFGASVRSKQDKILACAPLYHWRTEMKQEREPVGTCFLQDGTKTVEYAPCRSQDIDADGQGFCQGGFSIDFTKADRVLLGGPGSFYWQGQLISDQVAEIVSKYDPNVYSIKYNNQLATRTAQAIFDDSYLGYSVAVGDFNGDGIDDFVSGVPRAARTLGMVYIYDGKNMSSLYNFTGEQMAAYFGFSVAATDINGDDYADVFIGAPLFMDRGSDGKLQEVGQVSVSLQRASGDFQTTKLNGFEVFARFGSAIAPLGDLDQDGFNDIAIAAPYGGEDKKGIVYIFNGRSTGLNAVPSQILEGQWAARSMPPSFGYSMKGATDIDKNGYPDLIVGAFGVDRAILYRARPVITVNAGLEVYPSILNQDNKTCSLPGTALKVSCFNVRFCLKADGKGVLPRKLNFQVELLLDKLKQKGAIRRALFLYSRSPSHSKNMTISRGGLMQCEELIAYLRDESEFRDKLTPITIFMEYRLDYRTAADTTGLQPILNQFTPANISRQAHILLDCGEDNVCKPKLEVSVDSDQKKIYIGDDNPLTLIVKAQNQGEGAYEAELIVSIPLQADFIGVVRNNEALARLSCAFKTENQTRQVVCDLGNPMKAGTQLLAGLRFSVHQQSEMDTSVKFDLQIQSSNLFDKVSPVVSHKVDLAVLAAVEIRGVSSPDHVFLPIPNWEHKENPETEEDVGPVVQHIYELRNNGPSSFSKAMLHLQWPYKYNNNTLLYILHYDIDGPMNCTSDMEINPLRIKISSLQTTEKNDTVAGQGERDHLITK
Sequence of Integrin alpha-V (Homo sapiens) (P06756 891-1048 limits assumed): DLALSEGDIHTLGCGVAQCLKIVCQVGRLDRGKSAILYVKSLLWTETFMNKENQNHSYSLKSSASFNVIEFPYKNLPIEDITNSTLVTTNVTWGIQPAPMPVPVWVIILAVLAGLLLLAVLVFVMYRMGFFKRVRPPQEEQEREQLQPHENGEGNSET

In the case of `C[C@H](CCCOS(=O)(=O)O)[C@H]1CC[C@H]2[C@@H]3CC[C@@H]4C[C@H](O)CC[C@]4(C)[C@H]3CC[C@]12C`, the Activity [1] is reported as “Dose-Dependent Effect”, the inhibition [2] is reported as “Active” and the inhibition (MDA-MB-231 [3]) is reported as “Active”. For the same molecule, the inhibition [4] was “Active”, the Ratio IC50 [5] was over 60 and the Activity (MDA-MB-231 [6]) was “Active”. The inhibition [7] was “Dose-Dependent Effect”, the inhibition [8] was 100% and the Activity (MDA-MB-231 [9]) was “inactive”. The inhibition [10] was 3%, the inhibition (MDA-MB-231 [11]) was “inactive” and the inhibition (Paxillin (Homo sapiens) [12]) was “Active”. The Activity (MDA-MB-231 [13]) was “inactive”, the IC50 [14] was 16.7 µM and the inhibition [15] was 15%. The inhibition (Paxillin (Homo sapiens) [16]) was “Dose-Dependent Effect”, the inhibition [17] was “Dose-Dependent Effect” and the inhibition (MDA-MB-231 [18]) was “Active”. The Activity [19] was “Dose-Dependent Effect” and the Activity [20] was “Dose-Dependent Effect”.
